In US11324747B2, “Methods and compositions for managing neuroinflammation and neurodegeneration” (CENTRE FOR CELLULAR AND MOLECULAR PLATFORMS, priority 2016, dated 2022):
“Also recorded” adds a separate entry of the source. Like-named read-outs stand apart in the source and are kept apart here.

Experiments:
[1] = tested on: N27 cells; settings: 30 hours; for neuroprotective effect on N27 cell survival: Example 2.1; for neuroprotective effect on N27 cell survival / neuronal survival as compared to LPS alone / N27 cell survival (protective effect) vs LPS alone / protective effect in N27 cells: LPS 1 μg/ml; for neuronal survival as compared to LPS alone: Example 2.2; for effect of compound alone on the cells, survival, nitrite release or morphology: compound 1 μM without LPS; for protective effect in N27 cells: Example 5
Protocol: The survival of the N27 cells was then measured using MTS Assay.
N27 (Rat Dopaminergic cells) and BV2 (Mice Glial Cells) cells were co-cultured in Corning HTS Transwell Plates in RPMI Complete media supplemented with 10% HI-FBS, N27 in the lower well of the 24 well plates and BV2 in the 0.4 μm porous permeable support inserted on top of the 24 well for 24 hours at 37° C., 5% CO2. BV2 cells were treated with 1 μg/ml LPS in the presence and absence of 10 μM of CCND-01, CCND-02, CCND-03 and CCND-04, and 10 mM of NAC for 30 hours at 37° C., 5% CO2. The survival of N27 cells was then measured by performing MTS Assay and taking readings at 490 nm after 30 mins of incubation.
MTS assay was performed to determine the percentage N27 survival.

[2] = tested on: HEK-Blue™ TLR4 cells; assay: nF-κB induced SEAP activity in HEK-Blue TLR4 cells; type: cell-based; settings: LPS 10 ng/ml, compound 1 nM-100 μM, 12 hours
Protocol: (§1) Hek-Blue TLR-2, TLR-3 and TLR-4 Cells were obtained from InvivoGen (San Diego, Calif.). Culture treatment and assay was performed as per the manufacturers recommended protocol. Cells were treated and incubated for 12 hours, followed by collection of OD values at 620 nm.
(§2) HEK-Blue™ TLR4 cells were treated with LPS and HEK-Blue™ TLR2 were treated with Pam3CSK4 at a concentration of 10 ng/ml for 12 hours in the presence or absence of compounds (PD180970 or AGK-2) at a range of 1 nM-100 μM, and assayed for SEAP activity. LPS ([…]) was used as control for SEAP activity. nF-κB induced SEAP activity was quantified using HEK-Blue™ Detection at 620 nm.

[3] = tested on: HEK-Blue™ TLR2 cells; assay: nF-κB induced SEAP activity in HEK-Blue TLR2 cells; type: cell-based; settings: Pam3CSK4 10 ng/ml, compound 1 nM-100 μM, 12 hours
Protocol: as §1, §2

[4] = tested on: N27 cells; assay: Hydrogen peroxide induced neurotoxicity in N27 cells (MTS assay); type: cell-based, rat; settings: 75 μM hydrogen peroxide, compound 0.1 nM-10 μM, 8 hours
Protocol: Cells were co-treated with 75 μM H2O2 in the presence and absence of compounds for 8 hours. Treatments were made in complete RPMI medium containing 2% FBS.
N27 cells were treated with 75 μM hydrogen peroxide in the presence and absence of compounds PD180970 or AGK2 in a concentration range of 0.1 nM-10 μM for 8 hours in 96 well plates. MTS assay was used to check the cell viability in order to investigate the neuroprotective potential of the compounds. Cells with untreated media was used as blank, and cells with media containing 0.1% DMSO (vehicle or solvent for the compounds) was used as vehicle. Hydrogen peroxide (75 μM) treated N27 cells was used as control for.

[5] = tested on: N27 cells; assay: MPP+ induced neurotoxicity in N27 cells (MTS assay); type: cell-based, rat; settings: 300 μM MPP+, compound 0.1 nM-10 μM, 24 hours
Protocol: Cells were co-treated with 300 μM MPP^+ in the presence and absence of compounds for 24 hours. Treatments were made in complete RPMI medium containing 2% FBS.
N27 cells were treated with 300 μM of MPP^+ in the presence and absence of compounds (PD180970 or AGK-2) in a concentration range of 0.1 nM-10 μM and incubated for 24 hours. MPP^+ (300 μM) treated N27 cells was used as control. MTS assay was used to check the cell viability in order to investigate the neuroprotective potential of the compounds. None of the compounds could rescue MPP^+ treated dopaminergic N27 cells.

[6] = tested on: BV2 cells; assay: LPS induced nitrite release by BV2 in N27-BV2 co-culture (Griess assay); type: cell-based, mice; settings: LPS 1 μg/ml, 30 hours
[7] = tested on: N27 cells; assay: Toxicity to N27 cells induced by conditioned media from LPS activated BV2 cells (MTS assay); type: cell-based, rat; settings: Example 3, FIG. 3, LPS 1 μg/ml, 30 hours
[8] = tested on: IL-6; assay: LPS induced IL-6 secretion by BV2 in N27-BV2 co-culture (Luminex multiplexing assay); type: cell-based, mice; settings: Example 4.3; LPS 1 μg/ml, compound 1 μM, 30 hours
Protocol: (§3) Luminex multiplexing assay was performed to determine the concentration of IL-6 and MCP-1 released. LPS (1 μg/ml) was used as control for IL-6 release or MCP-1 release.

[9] = tested on: BV2 cells; assay: LPS induced nitrite release in BV2 cells (Griess assay); type: cell-based, mice; settings: Example 1; LPS 1 μg/ml, 48 hours, vs LPS alone
Protocol: The immortalized rat mesencephalic dopaminergic cells (N27 cells) were grown in RPMI 1640 medium containing 10% Fetal Bovine Serum (FBS), 2 mM L-glutamine, 50 U Penicillin and 50 μg/ml Streptomycin [22]. Mice microglial cells (BV2 cells) were grown in RPMI 1640 medium containing 10% Heat Inactivated Fetal Bovine Serum (HI-FBS). Cells were maintained in a humidified atmosphere of 5% CO2 at 37° C. until they were 60-70% confluent.
BV2 (Mice Glial Cells) cells were treated with LPS at a concentration of 1 μg/ml in the presence or absence of test compounds PD180970 or AGK-2 at a concentrating ranging from 0.1 nM-[…] and incubated for 48 hours at 37° C. at 5% CO2. Griess assay was used to measure nitrite released in order to investigate the anti-inflammatory potential of the compounds. Untreated BV2 cells was used as blank, 0.1% DMSO in media was used as vehicle. LPS (1 μg/ml) was used as control for nitrite release.

[10] = tested on: MCP-1; assay: LPS induced MCP-1 secretion by BV2 in N27-BV2 co-culture (Luminex multiplexing assay); type: cell-based, mice; settings: Example 4.3; LPS 1 μg/ml, compound 1 μM, 30 hours
Protocol: as §3

[11] = target: T1, ERRγ (Homo sapiens, UniProt P62508); settings: at concentrations below 10 μM; cited from earlier work
T1 sequence (P62508 1-458): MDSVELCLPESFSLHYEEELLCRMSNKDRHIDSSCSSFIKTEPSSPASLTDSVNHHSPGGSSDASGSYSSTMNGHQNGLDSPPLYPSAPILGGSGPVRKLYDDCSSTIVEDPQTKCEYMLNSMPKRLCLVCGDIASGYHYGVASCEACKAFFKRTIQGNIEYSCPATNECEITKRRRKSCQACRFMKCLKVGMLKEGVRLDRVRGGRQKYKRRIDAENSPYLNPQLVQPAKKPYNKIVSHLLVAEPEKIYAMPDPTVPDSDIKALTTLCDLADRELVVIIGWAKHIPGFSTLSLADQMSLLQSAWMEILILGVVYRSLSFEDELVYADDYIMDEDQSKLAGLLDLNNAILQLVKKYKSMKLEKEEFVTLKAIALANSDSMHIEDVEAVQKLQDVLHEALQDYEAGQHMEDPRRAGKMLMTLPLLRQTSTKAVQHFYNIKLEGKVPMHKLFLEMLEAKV

[12] = target: T2, ERα (Homo sapiens, UniProt P03372); settings: at concentrations below 10 μM; cited from earlier work
T2 sequence (P03372 1-595): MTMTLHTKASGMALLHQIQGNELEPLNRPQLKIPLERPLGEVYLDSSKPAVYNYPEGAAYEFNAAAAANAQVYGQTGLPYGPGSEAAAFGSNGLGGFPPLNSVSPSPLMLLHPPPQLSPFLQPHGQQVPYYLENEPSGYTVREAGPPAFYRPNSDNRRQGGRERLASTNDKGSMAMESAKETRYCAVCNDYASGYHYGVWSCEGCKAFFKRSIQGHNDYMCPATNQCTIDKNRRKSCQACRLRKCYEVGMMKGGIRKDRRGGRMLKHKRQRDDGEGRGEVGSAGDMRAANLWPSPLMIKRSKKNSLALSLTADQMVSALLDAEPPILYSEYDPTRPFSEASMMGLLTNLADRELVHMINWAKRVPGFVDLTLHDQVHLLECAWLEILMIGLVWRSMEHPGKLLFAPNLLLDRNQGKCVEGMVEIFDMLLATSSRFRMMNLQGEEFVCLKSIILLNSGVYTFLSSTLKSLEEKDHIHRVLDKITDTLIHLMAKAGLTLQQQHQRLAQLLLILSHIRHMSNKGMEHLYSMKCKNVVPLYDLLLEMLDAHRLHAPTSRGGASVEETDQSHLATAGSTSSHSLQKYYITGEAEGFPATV

Row | Compound | neuroprotective effect on N27 cell survival ([1]; compound 10 μM) | neuronal survival as compared to LPS alone ([1]; compound 1 μM) | N27 cell survival (protective effect) vs LPS alone ([1]; Example 4, compound 1 μM) | effect of compound alone on the cells, survival, nitrite release or morphology ([1]; Example 4) | protective effect in N27 cells ([1]; compound 10 μM) | nF-κB induced SEAP activity [2] | nF-κB induced SEAP activity [3] | neuroprotective effect on H2O2 induced toxicity [4] | neuroprotective effect on MPP+ induced toxicity [5] | level of nitrite released by LPS induced BV2 cells ([6]; Example 2.2, compound 1 μM) | level of nitrite released by LPS induced BV2 cells ([6]; Example 4, compound 1 μM) | neuroprotective effect in N27 cells ([7]; compound 10 μM) | level of IL-6 released by LPS induced BV2 cells [8] | levels of nitrite released by LPS treated BV2 cells [9] | level of MCP-1 released by LPS induced BV2 cells [10] | also measured
1 | N#C/C(=C\c1ccc(-c2cc(Cl)ccc2Cl)o1)C(=O)Nc1cccc2ncccc12 [AGK-2] | significant neuroprotective effect | significant increase in neuronal survival | significant protective effect; also recorded: significant increase in neuronal survival | no effect | significant protective effect | significant inhibitory effect | not in HEK-Blue™ TLR2 cells | no significant neuroprotective effect | no significant neuroprotective effect | significant reduction in level of nitrite | significant decrease in nitrite level; also recorded: significant reduction in level of nitrite | significant neuroprotective effect | significant reduction in level of IL-6 | significant reduction in levels of nitrite | significant reduction in levels of IL-6 and MCP-1 | 
2 | COc1cc(/C=C(\C#N)C(=O)Nc2nnc(C(F)(F)F)s2)ccc1OCc1ccc(C(F)(F)F)cc1C(F)(F)F [CCND-04] |  |  |  |  |  |  |  |  |  |  |  |  |  |  |  | antagonist activity on ERRγ [11]: no significant antagonist activity; antagonist activity on ERα [12]: no significant antagonist activity
3 | Cc1ccc(NC(=O)c2ccc(CN3CCN(C)CC3)cc2)cc1Nc1nccc(-c2cccnc2)n1 [Imatinib] |  |  |  |  | significant protective effect |  |  |  |  |  |  |  |  |  |  | 
4 | CC(=O)N[C@@H](CS)C(=O)O [NAC, N-acetylcysteine] |  |  |  |  | neuroprotective role |  |  |  |  |  |  |  |  |  |  | neuroprotective effect on N27 cell survival ([1]; NAC 10 mM): inhibit neuronal cell death; neuronal survival as compared to LPS alone ([1]; NAC 10 mM): significant increase in neuronal survival; N27 cell survival (protective effect) vs LPS alone ([1]; Example 4.1, NAC 10 μM): significant protective effect; level of nitrite released by LPS induced BV2 cells ([6]; Example 2.2, NAC 10 mM): significant reduction in level of nitrite; neuroprotective effect in N27 cells ([7]; NAC 1 mM): significant neuroprotective effect
5 | Cc1cn(-c2cc(NC(=O)c3ccc(C)c(Nc4nccc(-c5cccnc5)n4)c3)cc(C(F)(F)F)c2)cn1 [Nilotinib] |  |  |  |  | significant protective effect |  |  |  |  |  |  |  |  |  |  | 
6 | Cc1cc(Nc2ncc3cc(-c4c(Cl)cccc4Cl)c(=O)n(C)c3n2)ccc1F [PD180970] | significant neuroprotective effect | significant increase in neuronal survival | significant protective effect; also recorded: significant increase in neuronal survival | no effect | significant protective effect | significant inhibitory effect | not in HEK-Blue™ TLR2 cells | no significant neuroprotective effect | no significant neuroprotective effect | significant reduction in level of nitrite | significant decrease in nitrite level; also recorded: significant reduction in level of nitrite | significant neuroprotective effect | significant reduction in level of IL-6 | significant reduction in levels of nitrite | significant reduction in levels of IL-6 and MCP-1 | 
